Reference: publication PMC7558026, “Exploring and applying the substrate promiscuity of a C-glycosyltransferase in the chemo-enzymatic synthesis of bioactive C-glycosides” (Nature Communications, 2020)
Several values for one entry are separate records, joined by “and”; a condition that tells them apart may be missing. Equal values may be shown once.

Assays:
Assay type in all cases: biochemical, Aloe barbadensis
AbCGT [1] = molecular target: T1, AbCGT (Aloe vera, UniProt A0A7G9P699); assay: Glycosyltransferase activity assay, purified AbCGT (wild type) with aglycon acceptors and UDP-Glc; details: for conversion rates, O,N,S-glycosylation / conversion rates, di-C-glycosylation / conversion rates, mono-C-glycosylation: aglycon acceptor with UDP-Glc, pH 7.4, 30 °C, up to 12 h, Reaction-1 to -3
T1 sequence (A0A7G9P699 entry or part of it): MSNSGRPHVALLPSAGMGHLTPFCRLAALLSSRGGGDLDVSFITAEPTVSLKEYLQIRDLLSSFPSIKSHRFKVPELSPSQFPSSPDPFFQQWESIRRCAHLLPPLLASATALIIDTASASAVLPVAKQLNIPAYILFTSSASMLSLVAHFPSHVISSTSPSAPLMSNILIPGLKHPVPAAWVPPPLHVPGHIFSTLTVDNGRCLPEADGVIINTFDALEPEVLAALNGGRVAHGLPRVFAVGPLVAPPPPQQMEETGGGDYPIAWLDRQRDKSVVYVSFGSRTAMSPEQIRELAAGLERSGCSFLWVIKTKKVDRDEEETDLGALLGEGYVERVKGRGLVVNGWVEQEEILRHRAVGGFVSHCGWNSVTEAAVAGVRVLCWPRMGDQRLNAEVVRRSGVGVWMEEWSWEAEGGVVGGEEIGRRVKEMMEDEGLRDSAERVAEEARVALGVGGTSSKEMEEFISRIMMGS

AbCGT [2] = molecular target: T1, AbCGT; assay: Kinetic parameters of AbCGT (wild type); details: acceptor varied, saturating UDP-Glc, pH 7.4, 30 °C
Protocol: The reactions terminated by the addition of 200 μL of ice-cold methanol. Subsequently, samples were centrifuged at 15,000 × g for 30 min to collect the supernatant, and aliquots were analyzed by HPLC as described above. All experiments were performed in triplicate. The value of Km was calculated with the method of Lineweaver–Burk plot.

AbCGT [3] = molecular target: T1, AbCGT; assay: Glycosyltransferase activity assay, purified AbCGT (wild type) with aglycon acceptors and UDP-Glc; details: pH 7.4, 30 °C, 12 h, Reaction-1 to -3
AbCGT V183R = assay: Glycosyltransferase activity of AbCGT variant V183R; details: pH 7.4, 30 °C, 12 h, Reaction-1 to -3
Protocol: (§1) The reaction mixture contained 0.5 mM sugar donors (1.0 mM for di-glycosylation), 0.25 mM aglycons, 50 mM Tris-HCl (pH 7.4), and 50‒100 μg of purified AbCGT in a final volume of 100 μL. Due to the instability of some acceptors in the buffer of pH 11.0, the reactions were performed under the physiological conditions (pH 7.4, 30 °C) to compare the catalytic activities of AbGT27 with different substrates under the same conditions. The reactions were performed at 30 °C for up to 12 h and terminated by the addition of 200 μL of ice-cold methanol. Subsequently, samples were centrifuged at 15,000 × g for 30 min to collect the supernatant, and aliquots were analyzed by HPLC-UV/ESIMS. HPLC analysis was performed on a Shiseido CAPCELL PAK C18 MG III column (250 mm × 4.6 mm I.D., 5 μm, Shiseido Co., Ltd., Japan) at a flow rate of 1 mL min^‒1. The mobile phase was a gradient elution of solvents A (0.1% formic acid aqueous solution) and B (methanol). The gradient programs were used for the analysis of the reactions (Supplementary Table 6). The conversion rates of the enzyme reactions were calculated from peak areas of glycosylated products and substrates as analyzed by HPLC. To facilitate inferential statistical analysis, three parallel assays were routinely performed; the means ± SD from triplicate analyses are reported here. […]

AbCGT V183N = assay: Glycosyltransferase activity of AbCGT variant V183N; details: pH 7.4, 30 °C, 12 h, Reaction-1 to -3
Protocol: as §1

AbCGT V183E = molecular target: T2, AbCGT V183E (Aloe vera, UniProt A0A7G9P699, V183E); assay: Glycosyltransferase activity of AbCGT variant V183E
T2 sequence (A0A7G9P699 1-470 V183E): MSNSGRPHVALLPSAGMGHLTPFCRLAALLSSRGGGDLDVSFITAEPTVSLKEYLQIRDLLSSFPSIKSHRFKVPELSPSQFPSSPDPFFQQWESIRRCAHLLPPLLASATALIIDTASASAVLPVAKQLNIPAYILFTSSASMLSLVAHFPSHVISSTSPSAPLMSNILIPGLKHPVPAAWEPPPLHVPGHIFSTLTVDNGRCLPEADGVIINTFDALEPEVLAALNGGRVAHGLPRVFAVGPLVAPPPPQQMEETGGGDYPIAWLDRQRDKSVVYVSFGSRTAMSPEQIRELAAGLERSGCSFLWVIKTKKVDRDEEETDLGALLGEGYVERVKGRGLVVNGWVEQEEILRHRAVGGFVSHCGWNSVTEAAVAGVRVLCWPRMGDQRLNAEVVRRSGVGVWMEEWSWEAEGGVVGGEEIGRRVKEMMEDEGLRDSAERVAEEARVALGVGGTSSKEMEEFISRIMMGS
Protocol: The reaction mixture contained 0.5 mM sugar donors (1.0 mM for di-glycosylation), 0.25 mM aglycons, 50 mM Tris-HCl (pH 7.4), and 50‒100 μg of purified AbCGT in a final volume of 100 μL. Due to the instability of some acceptors in the buffer of pH 11.0, the reactions were performed under the physiological conditions (pH 7.4, 30 °C) to compare the catalytic activities of AbGT27 with different substrates under the same conditions. The reactions were performed at 30 °C for up to 12 h and terminated by the addition of 200 μL of ice-cold methanol. Subsequently, samples were centrifuged at 15,000 × g for 30 min to collect the supernatant, and aliquots were analyzed by HPLC-UV/ESIMS. HPLC analysis was performed on a Shiseido CAPCELL PAK C18 MG III column (250 mm × 4.6 mm I.D., 5 μm, Shiseido Co., Ltd., Japan) at a flow rate of 1 mL min^‒1. The mobile phase was a gradient elution of solvents A (0.1% formic acid aqueous solution) and B (methanol). The gradient programs were used for the analysis of the reactions (Supplementary Table 6). The conversion rates of the enzyme reactions were calculated from peak areas of glycosylated products and substrates as analyzed by HPLC. To facilitate inferential statistical analysis, three parallel assays were routinely performed; the means ± SD from triplicate analyses are reported here.
Site-saturation mutagenesis of AbCGT at residue 183 was performed by PCR using pET28a-AbCGT as a template and the corresponding degenerate primers, which are listed in Supplementary Table 5. PCR products were purified and transformed into Trans1-T1 (DE3) E. coli. The sequences of pET28a-AbCGT mutants were confirmed by sequencing, and transformed into Transetta (DE3) E. coli for heterologous expression following protein purification.

AbCGT V183L = assay: Glycosyltransferase activity of AbCGT variant V183L; details: pH 7.4, 30 °C, 12 h, Reaction-1 to -3
Protocol: as §1

AbCGT V183D = molecular target: T3, AbCGT V183D (Aloe vera, UniProt A0A7G9P699, V183D); assay: Glycosyltransferase activity of AbCGT variant V183D
T3 sequence (A0A7G9P699 1-470 V183D): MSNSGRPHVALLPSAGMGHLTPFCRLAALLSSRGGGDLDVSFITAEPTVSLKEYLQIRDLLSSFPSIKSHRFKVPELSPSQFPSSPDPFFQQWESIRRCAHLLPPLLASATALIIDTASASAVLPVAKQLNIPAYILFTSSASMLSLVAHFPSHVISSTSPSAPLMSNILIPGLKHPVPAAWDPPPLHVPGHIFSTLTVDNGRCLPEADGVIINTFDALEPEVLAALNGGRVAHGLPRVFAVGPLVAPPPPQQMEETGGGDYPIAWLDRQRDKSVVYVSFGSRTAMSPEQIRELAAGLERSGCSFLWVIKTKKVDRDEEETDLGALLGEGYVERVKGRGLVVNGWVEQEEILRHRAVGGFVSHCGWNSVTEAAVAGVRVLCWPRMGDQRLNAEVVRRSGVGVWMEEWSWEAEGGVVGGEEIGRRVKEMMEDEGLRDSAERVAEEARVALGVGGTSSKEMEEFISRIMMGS
In short: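 Each purified AbCGT residue-183 mutant (50‒100 μg) was incubated with 0.25 mM aglycon and 0.5 mM sugar donor (1.0 mM for di-glycosylation) in 50 mM Tris-HCl pH 7.4 at 30 °C for up to 12 h. The reaction was quenched with cold methanol, and conversion rate was taken from HPLC peak areas of product versus substrate; triplicate means ± SD.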

AbCGT V183M = assay: Glycosyltransferase activity of AbCGT variant V183M; details: pH 7.4, 30 °C, 12 h, Reaction-1 to -3
Protocol: as §1

AbCGT V183C = assay: Glycosyltransferase activity of AbCGT variant V183C; details: pH 7.4, 30 °C, 12 h, Reaction-1 to -3
Protocol: as §1

AbCGT V183Q = assay: Glycosyltransferase activity of AbCGT variant V183Q; details: pH 7.4, 30 °C, 12 h, Reaction-1 to -3
Protocol: as §1

[4] = V183E, pH 7.4, 30 °C, 12 h, Reaction-1 to -3
[5] = V183D, pH 7.4, 30 °C, 12 h, Reaction-1 to -3

## CC(=O)c1c(O)cc(O)cc1O [Compound 11, phloracetophene]
AbCGT [1]
  conversion rates, O,N,S-glycosylation: 0%
  conversion rates, di-C-glycosylation: 100%
  conversion rates, mono-C-glycosylation: 0%
AbCGT [2]
  Kcat: 2.4 s⁻¹

## O=C1CC(O)(c2ccc(O)cc2)Oc2cc(O)cc(O)c21 (stereo not shown) [Compound 23, 2-hydroxynaringenin]
AbCGT [3]
  conversion rates of 2-hydroxynaringenin, C-glycosylation: 85.9% and 83.4% and 85%
  conversion rates of 2-hydroxynaringenin, O-glycosylation: 14.1% and 16.6% and 15%
AbCGT V183R
  conversion rates of 2-hydroxynaringenin, C-glycosylation: 64.9% and 75.1% and 70.5%
  conversion rates of 2-hydroxynaringenin, O-glycosylation: 3.4% and 2.7% and 2.9%
AbCGT [1]
  conversion rates, O,N,S-glycosylation: 16.7% and 14.4% and 17.2%
  conversion rates, di-C-glycosylation: 0%
  conversion rates, mono-C-glycosylation: 83.3% and 85.6% and 82.8%
AbCGT [1]; reaction-1
  WT/yield of C-glycoside(%): 82%
  WT/yield of O-glycoside(%): 18.7%
AbCGT [1]; reaction-2
  WT/yield of C-glycoside(%): 84.9%
  WT/yield of O-glycoside(%): 16.2%
AbCGT [1]; reaction-3
  WT/yield of C-glycoside(%): 83.2%
  WT/yield of O-glycoside(%): 17.8%
AbCGT V183N
  conversion rates of 2-hydroxynaringenin, C-glycosylation: 95.8% and 95.1% and 94.3%
  conversion rates of 2-hydroxynaringenin, O-glycosylation: 4.2% and 4.9% and 5.7%
AbCGT V183E; [4]
  conversion rates of 2-hydroxynaringenin, C-glycosylation: 99.8% and 99.6%
  conversion rates of 2-hydroxynaringenin, O-glycosylation: 0.2% and 0.4%
AbCGT V183E; reaction-1
  V183E/yield of O-glycoside(%): 0% and 0.5%
AbCGT V183E; reaction-2
  V183E/yield of O-glycoside(%): 0% and 0.3%
AbCGT V183E; reaction-3
  V183E/yield of O-glycoside(%): 0% and 0.8%
AbCGT V183L
  conversion rates of 2-hydroxynaringenin, C-glycosylation: 83% and 80% and 76.5%
  conversion rates of 2-hydroxynaringenin, O-glycosylation: 17% and 20% and 23.5%
AbCGT V183D; [5]
  conversion rates of 2-hydroxynaringenin, C-glycosylation: 99.7% and 99.5%
  conversion rates of 2-hydroxynaringenin, O-glycosylation: 0.3% and 0.5%
AbCGT V183D; reaction-1
  V183D/yield of C-glycoside(%): 99.3%
  V183D/yield of O-glycoside(%): 0.7%
AbCGT V183D; reaction-2
  V183D/yield of C-glycoside(%): 99.5%
  V183D/yield of O-glycoside(%): 0.5%
AbCGT V183D; reaction-3
  V183D/yield of C-glycoside(%): 99.2%
  V183D/yield of O-glycoside(%): 0.8%
AbCGT V183M
  conversion rates of 2-hydroxynaringenin, C-glycosylation: 80.2% and 82.7% and 79.5%
  conversion rates of 2-hydroxynaringenin, O-glycosylation: 19.8% and 17.3% and 20.5%
AbCGT V183C
  conversion rates of 2-hydroxynaringenin, C-glycosylation: 85.3% and 83.5%
  conversion rates of 2-hydroxynaringenin, O-glycosylation: 14.7% and 16.5%
AbCGT V183Q
  conversion rates of 2-hydroxynaringenin, C-glycosylation: 88.9% and 88.2%
  conversion rates of 2-hydroxynaringenin, O-glycosylation: 11.1% and 11.8%
